The text below walks through data of BindingDB's records for doi:10.1021/bi501086s (The University of Texas, 2014).

Structures are written as SMILES.

For the assay, the target named is T1, Acylase (Pseudomonas aeruginosa, UniProt A0A0G5TC92).
T1 sequence (A0A0G5TC92 whole entry): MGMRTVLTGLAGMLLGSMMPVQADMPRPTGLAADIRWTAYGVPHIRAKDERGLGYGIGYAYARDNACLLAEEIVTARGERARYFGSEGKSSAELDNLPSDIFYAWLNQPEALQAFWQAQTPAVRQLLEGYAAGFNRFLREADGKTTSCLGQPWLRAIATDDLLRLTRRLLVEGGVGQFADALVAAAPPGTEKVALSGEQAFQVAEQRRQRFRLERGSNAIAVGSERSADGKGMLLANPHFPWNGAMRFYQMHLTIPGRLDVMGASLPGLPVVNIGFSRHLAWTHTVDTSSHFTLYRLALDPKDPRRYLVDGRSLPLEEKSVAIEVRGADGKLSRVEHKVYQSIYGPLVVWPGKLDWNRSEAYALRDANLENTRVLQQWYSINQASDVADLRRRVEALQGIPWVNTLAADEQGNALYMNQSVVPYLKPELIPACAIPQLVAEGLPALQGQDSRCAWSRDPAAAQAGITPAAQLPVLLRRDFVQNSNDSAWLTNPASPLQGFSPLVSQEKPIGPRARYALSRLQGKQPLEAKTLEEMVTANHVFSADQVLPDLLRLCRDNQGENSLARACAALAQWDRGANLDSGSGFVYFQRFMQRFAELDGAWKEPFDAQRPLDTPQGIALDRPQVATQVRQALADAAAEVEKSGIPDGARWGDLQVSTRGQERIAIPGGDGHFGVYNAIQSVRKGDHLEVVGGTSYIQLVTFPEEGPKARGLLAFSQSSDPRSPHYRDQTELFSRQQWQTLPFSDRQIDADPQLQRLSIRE
Kind of assay: PVdQ Inhibition Assay. The following applies: pH 8. The method, then: Briefly, stock solutions of the colorimetric PvdQ substrate (4-nitrophenyl dodecanoate) were prepared in methanol and stock solutions of each n-alkylboronic acid inhibitor in DMSO. […] Each reaction was initiated by addition of purified PvdQ (10 nM) and product formation was monitored by measuring the increase in absorbance at 402 nm continuously.
The molecule `CCCCB(O)O` [Borinic acid derivative] registered a Ki of 550 µM. In turn, `CCB(O)O` [1-Ethylboronic acid (C2-B(OH)2)] yielded a Ki of 2000 µM. Against the preceding molecule, the Ki is about 3.6-fold higher.

In turn, `CCCCCCB(O)O` [1-Hexylboronic acid (C6-B(OH)2)] had a Ki of 2.1 µM. For `CCCB(O)O` [1-Propylboronic acid (C3-B(OH)2)], the affinity corresponds to a Ki of 4700 µM.

The Ki is the dissociation constant of the complex between target and ligand, obtained from inhibition or displacement. Read a high Ki as a looser hold on the target.
